Data reported in patent publication US7452693B2, “Discrete acyltransferases associated with type I polyketide synthases and methods of use” (Wisconsin Alumni Research Foundation, priority 2001, dated 2008).

Key:
[1] = system: HELA S3, sarcoma 180, B-16, Colon 26, and leukemia P388; conditions: cited from earlier work
[2] = system: S. atroolivaceus; assay: Growth inhibition of S. atroolivaceus by antibiotics; format: cell-based, Streptomyces atroolivaceus; conditions: for concentration for complete inhibition of growth: S. atroolivaceus; for sensitivity of S. atroolivaceus: in words
Method: S. atroolivaceus grows very well at 30° C.; it doesn't grow at temperature beyond 35° C. […] Thus, E. coli—Streptomyces shuttle vectors pOJ260 (suicide vector, Am^R) and pKC1139 (self-replicating vector, Am^R) were chosen to make the gene-disruption constructs pYC12 and pYC20, respectively. The concentration of antibiotic (Am) for selection of transformants/exconjugates is 50 μg/ml.

Compound	activity against drug-resistant tumors ([1]; murine models inoculated with tumors resistant to cisplatin, doxorubicin, mitomycin, or cyclophosphamide)	antitumor activity ([1]; murine tumor models in vivo)	concentration for complete inhibition of growth [2]	sensitivity of S. atroolivaceus [2]	sensitivity of S. atroolivaceus ([2]; listed as apromycin)
C/C1=C\[C@@H](O)C(=O)/C=C/C=C\c2csc(n2)[C@@H](C)NC(=O)C[C@@]2(CC1)[S+]([O-])SC(=O)[C@]2(C)O (stereo partly shown) [Lnm, Leinamycin]	active	potent antitumor activity	–	–	–
C=C(NC(=O)C(=C)NC(=O)c1csc(C2=N[C@@H]3c4csc(n4)[C@H]4NC(=O)c5csc(n5)[C@H]([C@](C)(O)[C@@H](C)O)NC(=O)[C@H]5CSC(=N5)/C(=C/C)NC(=O)[C@H]([C@@H](C)O)NC(=O)c5csc(n5)[C@]3(CC2)NC(=O)[C@H](C)NC(=O)C(=C)NC(=O)[C@H](C)NC(=O)[C@H]([C@@H](C)CC)N[C@@H]2C=Cc3c([C@H](C)O)cc(nc3[C@H]2O)C(=O)O[C@@H]4C)n1)C(N)=O [thiostrepton]	–	–	3 µg/mL	highly sensitive	–
CN[C@@H]1[C@@H](O[C@H]2O[C@H](CO)[C@@H](N)[C@H](O)[C@H]2O)OC2C[C@@H](N)[C@@H](O[C@H]3[C@H](O)[C@@H](O)[C@H](N)C[C@@H]3N)OC2[C@@H]1O (stereo partly shown) [apramycin]	–	–	10 µg/mL	sensitive	highly sensitive
